Format in all cases: cell-based, Human
The test system of experiment [1] is U87 cells. The experiment in a line: T1-weighted MRI (2D FLASH) of U87 cells after uptake of contrast agent. To be noted: U87 cells at 7*10^4 cell/cm^2, 400 µM, 4.7 T, unlabeled cells SNR 60. The protocol:
E-[c(RGDfK)2]-DOTA-Gd uptake by U87 cells was performed on cells platted at 7.10^4 cells/cm^2. After 24 h, the cells were then incubated for 4 h with 400 µM of E-[c(RGDfK)2]-DOTA-Gd or for 1 h with MnCl2 at 400 µM as positive contrast for the T1-weighted (T1-w) sequence. Then the medium was discarded and the cells were washed with RPMI. The cells were re-suspended at 2.10_6 cells in 100 µL of phosphate buffer saline (PBS) for each condition and mixed with 100 µL of agarose 2% (Sigma-Aldrich).
MR images of cells trapped in agarose gel were acquired on a 4.7 T Biospec system (Bruker, Ettlingen, Germany). The system was equipped with a 6-cm diameter BG6 gradient system capable of 950 mT/m maximum strength. Imaging was performed with a birdcage resonator (35-mm diameter and 80-mm length) tuned at 200.3 MHz. 2D images were acquired with a T1-w sequence (FLASH sequence, TE/TR: 1,6/14 ms, flip angle: 60°, FOV: 25*25 mm, matrix:128*96, […], total acquisition time: 5 min 44 s).

Experiment [2] relates to U87 cells. The experiment in a line: Fluorescence microscopy of sub-cellular location of fluorescent RGD ligands. The protocol: Protocols for microscopy were identical to those for flow cytometry. Cells were seeded on glass coverslips after collagen treatment as described above. After the different sets of incubations the cells were washed with RPMI and fixed with paraformaldehyde (4%, 20 min). Nuclei were then labeled with DAPI (0.01 mg/ml). After three washes, the coverslips were mounted on glass slides and observed using a Leica DM5500 B (magnification 63×, λexc: 480 nm, λem: 530 nm and λexc:360 nm λem: 470 nm for alexa fluor-488 and DAPI respectively).

Experiment [3] relates to U87 cells. The experiment can be described thus: Flow cytometry uptake with cytoskeleton drugs (paclitaxel, cytoD, colchicine, nocodazole). To be noted: 1 h. The protocol:
(§1) Uptakes of E-[c(RGDfK)2]-Alexa488 and iRGD-alexa488 by U87 cells were compared for different cellular densities using flow cytometry. Twenty four multiwell plates (Becton-Dickinson, 2 cm^2/well), were pretreated with collagen (Sigma-Aldrich) (10 µg/cm^2). Then the cells were seeded during 24 h either at densities ranging from 8.10^3 to 10^5 cells/cm2 or at three typical densities being in the lowest, the median and the highest values of the previously mentioned density range. The cells were incubated 1 h with the fluorescent RGD ligands (E-[c(RGDfK)2]-Alexa488, 2 µM; iRGD-alexa488, 15 µM). Then the medium was discarded and the cells were washed with Roswell Park Memorial Institute Medium (RPMI, Gibco Corp). Thereafter the cells were re-suspended in RPMI at 100 cells/µl and analyzed by flow cytometry (Guava easyCyte flow cytometer/counter, Millipore, λexc: 488 nm, λem: 525 nm).
The microtubule targeting was performed using paclitaxel (10 µM), colchicin (7.5 µM) and nocodazole (30 µM).
(§2) All of these inhibitors and drugs were applied on the cells for 1 h simultaneously with the fluorescent RGD ligands. When specified, incubation of drugs begun 20 min before the incubation with the RGD ligands. All the reagents were from Sigma-Aldrich.
In general terms: A flow cytometer gives signals particle by particle.

Experiment [4] deals with U87 cells. The experiment can be described thus: Flow cytometry uptake with endocytosis pathway inhibitors (nystatin, amiloride, chloroquine). Particulars: 1 h. The protocol: as §1
The clathrin-mediated endocytosis and the caveola-dependent endocytosis were characterized by incubations with chloroquine (100 µM) and nystatin (30 µM), respectively. Contribution of macropinocytosis was studied following amiloride treatment (1 mM).
as §2

For experiment [5], the system named is U87 cells. The experiment in a line: Flow cytometry uptake under different energy substrates and oxidative metabolism inhibitors. The protocol:
Human GBM cell line U87-MG from the American Type Culture Collection (ATCC, LGC standards, Middlesex, UK) was cultured in Dulbecco's modified eagles medium (DMEM, Gibco Corp) supplemented with 10% fetal calf serum (FCS, Gibco Corp), in a humidified atmosphere with 5% CO2 at 37°C. The characterization of the metabolism contribution was performed with DMEM without glucose and pyruvate (DMEM, Gibco Corp). Glucose or pyruvate were added when necessary at the concentration of 1 g/L and 0.11 g/L , respectively.
as §1
The oxidative metabolism was studied with oligomycine (20 µM) and rotenone (10 µM).
as §2

Experiment [6] concerns U87 cells. The experiment can be described thus: Flow cytometry uptake of fluorescent RGD ligands versus cell density. Particulars: 8*10^3 to 10^5 cells/cm^2, 1 h incubation, Alexa Fluor-488 conjugates (E-[c(RGDfK)2] 2 µM; iRGD 15 µM). As to the method:
as §1

For experiment [7], the system named is U87 cells. The experiment can be described thus: T1-weighted MRI (3D FLASH) of U87 cells seeded at three densities and labeled with RGD-Gd. Particulars: 400 µM. The protocol: Seeded at three densities, cells were incubated with E-[c(RGDfK)2]-DOTA-Gd at 400 µM for 4 h. The same protocol to prepare cells trapped in agarose gel was used. 3D images of the RGD internalization were acquired with a T1-w sequence (FLASH sequence, TE/TR: 1,5/12 ms, flip angle: 20°, FOV: 30*25*20 mm, matrix:128*128*64, 6 averages, total acquisition time: 9 min 49 s).

“And” between values parts separate entries of the source, which are not always exact repeats. Equal entries are not always repeated.

For the molecule `[Cl][Mn][Cl]` [MnCl2, reference compound], in the experiment on U87 cells [1] (positive contrast control, 1 h incubation), the “SNR of labeled U87 cells (T1-w MRI)” value worked out at 100.
For the molecule CRGDK/RGPD/EC [iRGD-alexa488], the “Sub-cellular location of the fluorescent signal” value with U87 cells [2] (1 h at 37°C, all studied cell densities, no inhibitor (iRGD-alexa488 15 µM)) is on record as “most of the signal appeared intracellular”. For the same molecule, the Membrane labeling result in the experiment with U87 cells [2] (1 h at 37°C, no inhibitor (iRGD-alexa488 15 µM)) is recorded as “undetectable”. Besides, in the experiment on U87 cells [2] (nystatin (30 µM), data not shown), the “Fluorescence location in the presence or not of nystatin” value is reported as “inside cytoplasmic vesicles”. For the same molecule, in the experiment with U87 cells [2] (with chloroquine (100 µM)), the “Sub-cellular location of fluorescence during inhibition of clathrin-mediated endocytosis” value is “typical cytoplasmic membrane labeling”. For the same molecule, the “Uptake results after colchicine treatment (strong decrease), high density” value in the experiment with U87 cells [3] (colchicine 7.5 µM, high density (80000 cell/cm^2 for E-[c(RGDfK)2], 70000 for iRGD), mean ± SEM, n≥3) is recorded as 54.8%±0.8%. Besides, the “Uptake results after colchicine treatment (strong decrease), low density” value with U87 cells [3] (colchicine 7.5 µM, low density (10000 cell/cm^2), mean ± SEM, n≥3) is recorded as 55.0%±0.3%. Further, in the experiment with U87 cells [3] (colchicine 7.5 µM, medium density (40000 cell/cm^2 for E-[c(RGDfK)2], 35000 for iRGD), mean ± SEM, n≥3), the “Uptake results after colchicine treatment (strong decrease), medium density” value is given as 53.1%±0.1%. Further, in the experiment on U87 cells [3] (cytoD 20 µM, high density (80000 cell/cm^2 for E-[c(RGDfK)2], 70000 for iRGD), mean ± SEM, n≥3), the “cytoD effect on internalization (decrease), high density” value is given as 29.0%±2.1%. In the experiment on U87 cells [3] (cytoD 20 µM, low density (10000 cell/cm^2), mean ± SEM, n≥3), the “cytoD effect on internalization (decrease), low density” value is 29.7%±1.3%. In the experiment on U87 cells [3] (cytoD 20 µM, medium density (35000 cell/cm^2 for iRGD), mean ± SEM, n≥3), the “cytoD effect on internalization (decrease), medium density” value is given as 23.5%±1.3%. Besides, the “Effect of paclitaxel (stabilization of polymerized microtubules) on internalization” value in the experiment with U87 cells [3] (paclitaxel 10 µM) is reported as “did not alter”. For the same molecule, in the experiment on U87 cells [4] (amiloride 1 mM), the “Effect of macropinocytosis inhibition (amiloride) on internalization” value is “had no effect”. In the experiment on U87 cells [4] (chloroquine 100 µM, high density (95000 cell/cm^2 for E-[c(RGDfK)2], 75000 for iRGD), mean ± SEM, n≥3), the “Decrease of uptake after chloroquine treatment, high density” value is reported as 53.9%±2.5%. In the experiment with U87 cells [4] (chloroquine 100 µM, low density (15000 cell/cm^2 for E-[c(RGDfK)2], 7000 for iRGD), mean ± SEM, n≥3), the “Decrease of uptake after chloroquine treatment, low density” value was 42.4%±1.1% and 42%. Besides, the “Decrease of uptake after chloroquine treatment, medium density” value in the experiment on U87 cells [4] (chloroquine 100 µM, medium density (50000 cell/cm^2 for E-[c(RGDfK)2], 35000 for iRGD), mean ± SEM, n≥3) amounted to 48.2±0.2%. In addition, the “Effect of caveolin-dependent endocytosis inhibition (nystatin) on internalization” value in the experiment with U87 cells [4] (nystatin 30 µM, all studied cell densities) is listed as “did not alter”. For the same molecule, in the experiment with U87 cells [5] (DMEM without glucose, no oligomycin, remained cell density dependent), the “Internalization without glucose and with or without pyruvate (conditions 2 and 3)” value is given as “not altered”. In the experiment on U87 cells [5] (oligomycin 20 µM, glucose 1 g/L, pyruvate 0.11 g/L), the “Internalization with oligomycin in presence of glucose and pyruvate (condition 4)” value is on record as “decreased more for the lowest cell densities than for the highest ones”. In the experiment with U87 cells [5] (oligomycin 20 µM, regardless of the cell density), the “Internalization without glucose in the presence of pyruvate and oligomycin (condition 5)” value is “strong inhibition”. Further, in the experiment with U87 cells [5] (rotenone 10 µM, data not shown), the “Internalization with rotenone compared with oligomycin” value was “comparable”. In the experiment on U87 cells [6], the “Increase of cell labeling (MFI) at the highest densities compared to the lowest” value is 30%.
In the case of “E-[c(RGDfK)2]-DOTA-Gd (bicyclic or more) [RGD-gadolinium chelate made by mixing E-[c(RGDfK)2]-DOTA with GdCl2; MRI contrast agent]”, the “SNR of labeled U87 cells (T1-w MRI)” value in the experiment with U87 cells [1] (4 h incubation) came out at 70. The “SNR values for low, medium and high density compared with each other” value in the experiment on U87 cells [7] was “not significantly different”. The “SNR of the different cell densities compared with SNR of control” value in the experiment with U87 cells [7] (p<0.05) is listed as “significantly higher”. The “SNR (T1-w MRI), highest cell density” value in the experiment with U87 cells [7] (highest density, 4 h, 3D FLASH 4.7 T) is recorded as 16.5.

(Values after article PMC3873929, “Cellular Density Effect on RGD Ligand Internalization in Glioblastoma for MRI Application” (PLoS ONE, 2013).)
